In PubChem BioAssay AID2060888 (Molecular Pharmacology Branch, DTP, NCI, 2025):

Tested on: 695427-040-R-J1-PDC complex spheroid viability
Experiment: Anticancer human tumor 695427-040-R-J1-PDC patient-derived colon adenocarcinoma cell line growth inhibition [RAS]
Conditions: for IC50: curve of first compound; for viability, T/C: stronger effect = lower value
In short: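 Multi-cell-type spheroids: tumor cells plus HUVEC endothelial cells and mesenchymal stem cells. RAS-pathway inhibitors were combined with targeted agents, each dosed in half-log steps down from clinical Cmax, or from 10 microM when Cmax was unknown.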

[1] = second compound 0.000949 µM, first compound 0.0316 µM
[2] = second compound 0.000949 µM, first compound 0.1 µM
[3] = second compound 0.000949 µM, first compound 0.316 µM
[4] = second compound 0.000949 µM, first compound 1 µM
[5] = second compound 0.000949 µM, first compound 3.16 µM
[6] = second compound 0.000949 µM, first compound 10 µM
[7] = second compound 0.003 µM, first compound 0.0316 µM
[8] = second compound 0.003 µM, first compound 0.1 µM
[9] = second compound 0.003 µM, first compound 0.316 µM
[10] = second compound 0.003 µM, first compound 1 µM
[11] = second compound 0.003 µM, first compound 3.16 µM
[12] = second compound 0.003 µM, first compound 10 µM
[13] = second compound 0.00949 µM, first compound 0.0316 µM
[14] = second compound 0.00949 µM, first compound 0.1 µM
[15] = second compound 0.00949 µM, first compound 0.316 µM
[16] = second compound 0.00949 µM, first compound 1 µM
[17] = second compound 0.00949 µM, first compound 3.16 µM
[18] = second compound 0.00949 µM, first compound 10 µM
[19] = second compound 0.03 µM, first compound 0.0316 µM
[20] = second compound 0.03 µM, first compound 0.1 µM
[21] = second compound 0.03 µM, first compound 0.316 µM
[22] = second compound 0.03 µM, first compound 1 µM
[23] = second compound 0.03 µM, first compound 3.16 µM
[24] = second compound 0.03 µM, first compound 10 µM
[25] = second compound 0.0949 µM, first compound 0.0316 µM
[26] = second compound 0.0949 µM, first compound 0.1 µM
[27] = second compound 0.0949 µM, first compound 0.316 µM
[28] = second compound 0.0949 µM, first compound 1 µM
[29] = second compound 0.0949 µM, first compound 3.16 µM
[30] = second compound 0.0949 µM, first compound 10 µM
[31] = second compound 0.3 µM, first compound 0.0316 µM
[32] = second compound 0.3 µM, first compound 0.1 µM
[33] = second compound 0.3 µM, first compound 0.316 µM
[34] = second compound 0.3 µM, first compound 1 µM
[35] = second compound 0.3 µM, first compound 3.16 µM
[36] = second compound 0.3 µM, first compound 10 µM
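Also: viability read after seven days of drug exposure.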
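For viability, T/C in this document: 100% = DMSO vehicle control viability.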

For `CC(=O)OC12COC1CC(O)C1(C)C(=O)C(O)C3=C(C)C(OC(=O)C(O)C(NC(=O)OC(C)(C)C)c4ccccc4)CC(O)(C(OC(=O)c4ccccc4)C21)C3(C)C` (stereo unspecified) + CCn1c(-c2cccnc2C(C)OC)c2c3cc(ccc31)N1CCOC(CC(NC(=O)C(C(C)C)N(C)C(=O)C3(F)CCN(C(=O)C#CC(C)(C)N(C)C)CC3)C(=O)N3CCCC(N3)C(=O)OCC(C)(C)C2)C1, the IC50 (second compound 0.000949 µM) was greater than 10 µM, the IC50 (second compound 0.003 µM) was greater than 10 µM and the IC50 (second compound 0.00949 µM) was greater than 10 µM. For the same compound, the IC50 (second compound 0.03 µM) was greater than 10 µM, the IC50 (second compound 0.0949 µM) was greater than 10 µM and the IC50 (second compound 0.3 µM) was greater than 10 µM. The viability, T/C [1] was 81%, the viability, T/C [2] was 73.9% and the viability, T/C [3] was 76%. It also gave a viability, T/C [4] of 61.4%, a viability, T/C [5] of 65.3% and a viability, T/C [6] of 73.5%. It also gave a viability, T/C [7] of 95.7%, a viability, T/C [8] of 77.1% and a viability, T/C [9] of 61.1%. For the same compound, the viability, T/C [10] was 64.1%, the viability, T/C [11] was 70.8% and the viability, T/C [12] was 66.9%. The viability, T/C [13] was 107%, the viability, T/C [14] was 61% and the viability, T/C [15] was 67.4%. For the same compound, the viability, T/C [16] was 69.3%, the viability, T/C [17] was 78.5% and the viability, T/C [18] was 69%. For the same compound, the viability, T/C [19] was 83.6%, the viability, T/C [20] was 71.9% and the viability, T/C [21] was 61%. For the same compound, the viability, T/C [22] was 68.4%, the viability, T/C [23] was 78.8% and the viability, T/C [24] was 77%. It also gave a viability, T/C [25] of 77.7%, a viability, T/C [26] of 51.4% and a viability, T/C [27] of 67.1%. For the same compound, the viability, T/C [28] was 57.4%, the viability, T/C [29] was 76% and the viability, T/C [30] was 82.4%. The viability, T/C [31] was 76.8%, the viability, T/C [32] was 60.1% and the viability, T/C [33] was 68.1%. For the same compound, the viability, T/C [34] was 51.7%, the viability, T/C [35] was 43.9% and the viability, T/C [36] was 71.1%.
`NC1c2ccccc2OC12CCN(c1cnc3c(N4CCCc5ncccc54)n[nH]c3n1)CC2` (stereo unspecified) + CCn1c(-c2cccnc2C(C)OC)c2c3cc(ccc31)N1CCOC(CC(NC(=O)C(C(C)C)N(C)C(=O)C3(F)CCN(C(=O)C#CC(C)(C)N(C)C)CC3)C(=O)N3CCCC(N3)C(=O)OCC(C)(C)C2)C1 was tested, and the IC50 (second compound 0.000949 µM) was 0.914 µM, the IC50 (second compound 0.003 µM) was 1.37 µM and the IC50 (second compound 0.00949 µM) was 0.973 µM. It also gave an IC50 (second compound 0.03 µM) of 0.623 µM, an IC50 (second compound 0.0949 µM) of 0.94 µM and an IC50 (second compound 0.3 µM) of 0.665 µM. For the same compound, the viability, T/C [1] was 80.3%, the viability, T/C [2] was 78.3% and the viability, T/C [3] was 61.7%. The viability, T/C [4] was 49.1%, the viability, T/C [5] was 50.5% and the viability, T/C [6] was 43.2%. For the same compound, the viability, T/C [7] was 88.9%, the viability, T/C [8] was 70.5% and the viability, T/C [9] was 60.6%. The viability, T/C [10] was 45.7%, the viability, T/C [11] was 55.7% and the viability, T/C [12] was 38.6%. The viability, T/C [13] was 95.2%, the viability, T/C [14] was 58.1% and the viability, T/C [15] was 62.7%. For the same compound, the viability, T/C [16] was 54.6%, the viability, T/C [17] was 54.1% and the viability, T/C [18] was 32.8%. It also gave a viability, T/C [19] of 79.3%, a viability, T/C [20] of 63.4% and a viability, T/C [21] of 53%. It also gave a viability, T/C [22] of 45.1%, a viability, T/C [23] of 50.6% and a viability, T/C [24] of 35.3%. The viability, T/C [25] was 67%, the viability, T/C [26] was 67.4% and the viability, T/C [27] was 53.2%. The viability, T/C [28] was 47.4%, the viability, T/C [29] was 46.2% and the viability, T/C [30] was 31.7%. For the same compound, the viability, T/C [31] was 75.3%, the viability, T/C [32] was 46.4% and the viability, T/C [33] was 60.4%. It also gave a viability, T/C [34] of 51.8%, a viability, T/C [35] of 38.9% and a viability, T/C [36] of 27.1%.
For `Nc1ccn(C2OC(CO)C(O)C2(F)F)c(=O)n1` (stereo unspecified) + CCn1c(-c2cccnc2C(C)OC)c2c3cc(ccc31)N1CCOC(CC(NC(=O)C(C(C)C)N(C)C(=O)C3(F)CCN(C(=O)C#CC(C)(C)N(C)C)CC3)C(=O)N3CCCC(N3)C(=O)OCC(C)(C)C2)C1, the IC50 (second compound 0.000949 µM) was greater than 1 µM, the IC50 (second compound 0.003 µM) was greater than 1 µM and the IC50 (second compound 0.00949 µM) was greater than 1 µM. The IC50 (second compound 0.03 µM) was greater than 1 µM, the IC50 (second compound 0.0949 µM) was greater than 1 µM and the IC50 (second compound 0.3 µM) was greater than 1 µM. The viability, T/C (second compound 0.000949 µM, first compound 0.00316 µM) was 92.7%, the viability, T/C (second compound 0.000949 µM, first compound 0.01 µM) was 106% and the viability, T/C [1] was 98.3%. It also gave a viability, T/C [2] of 82%, a viability, T/C [3] of 77.3% and a viability, T/C [4] of 67.5%. For the same compound, the viability, T/C (second compound 0.003 µM, first compound 0.00316 µM) was 79.4%, the viability, T/C (second compound 0.003 µM, first compound 0.01 µM) was 98% and the viability, T/C [7] was 87.3%. The viability, T/C [8] was 71%, the viability, T/C [9] was 83.5% and the viability, T/C [10] was 58.6%. The viability, T/C (second compound 0.00949 µM, first compound 0.00316 µM) was 98.3%, the viability, T/C (second compound 0.00949 µM, first compound 0.01 µM) was 74.3% and the viability, T/C [13] was 87.2%. For the same compound, the viability, T/C [14] was 64.8%, the viability, T/C [15] was 82.7% and the viability, T/C [16] was 63.5%. It also gave a viability, T/C (second compound 0.03 µM, first compound 0.00316 µM) of 83%, a viability, T/C (second compound 0.03 µM, first compound 0.01 µM) of 99% and a viability, T/C [19] of 83.5%. For the same compound, the viability, T/C [20] was 75.9%, the viability, T/C [21] was 83.1% and the viability, T/C [22] was 74.2%. It also gave a viability, T/C (second compound 0.0949 µM, first compound 0.00316 µM) of 80%, a viability, T/C (second compound 0.0949 µM, first compound 0.01 µM) of 94.6% and a viability, T/C [25] of 99.6%. The viability, T/C [26] was 73.5%, the viability, T/C [27] was 77.8% and the viability, T/C [28] was 62.2%. It also gave a viability, T/C (second compound 0.3 µM, first compound 0.00316 µM) of 63.5%, a viability, T/C (second compound 0.3 µM, first compound 0.01 µM) of 97.8% and a viability, T/C [31] of 80.8%. It also gave a viability, T/C [32] of 79.3%, a viability, T/C [33] of 78.7% and a viability, T/C [34] of 65.7%.
